For the assay, the system named is SARS-CoV-2. The assay can be described thus: Antiviral activity against SARS-CoV-2 infected in Vero E6 cells assessed as inhibition of viral replication preincubated with cells for 1 hr and subsequent viral infection for 2 hrs followed by replacement with fresh medium containing compounds and measured after 24 hrs by qRT-PCR analysis. The format is functional, organism-based. The settings on record: Severe acute respiratory syndrome coronavirus 2, Vero C1008.

One may read the EC50 as the concentration at which the effect is half-maximal. `O=c1c(O)c(-c2cc(O)c(O)c(O)c2)oc2cc(O)cc(O)c12` [MYRICETIN]: the EC50 was found to be 8 µM.
